Data as given in ChEMBL document CHEMBL4800722, “Data for DCP probe BI 605906” (2021).

Columns and labels:
[1] = target: Non-receptor tyrosine-protein kinase TNK1 (Homo sapiens) (UniProt Q13470); settings: Compound concentration 1.0 uM
[2] = target: Interstitial collagenase (Homo sapiens) (UniProt P03956); settings: Compound concentration 10.0 uM
[3] = target: Inhibitor of nuclear factor kappa-B kinase subunit alpha (Homo sapiens) (UniProt O15111); assay: CHUK_IKKA Invitrogen Lab (UK) kinase screen (BI)
Sequence of Inhibitor of nuclear factor kappa-B kinase subunit alpha (Homo sapiens) (O15111 whole entry): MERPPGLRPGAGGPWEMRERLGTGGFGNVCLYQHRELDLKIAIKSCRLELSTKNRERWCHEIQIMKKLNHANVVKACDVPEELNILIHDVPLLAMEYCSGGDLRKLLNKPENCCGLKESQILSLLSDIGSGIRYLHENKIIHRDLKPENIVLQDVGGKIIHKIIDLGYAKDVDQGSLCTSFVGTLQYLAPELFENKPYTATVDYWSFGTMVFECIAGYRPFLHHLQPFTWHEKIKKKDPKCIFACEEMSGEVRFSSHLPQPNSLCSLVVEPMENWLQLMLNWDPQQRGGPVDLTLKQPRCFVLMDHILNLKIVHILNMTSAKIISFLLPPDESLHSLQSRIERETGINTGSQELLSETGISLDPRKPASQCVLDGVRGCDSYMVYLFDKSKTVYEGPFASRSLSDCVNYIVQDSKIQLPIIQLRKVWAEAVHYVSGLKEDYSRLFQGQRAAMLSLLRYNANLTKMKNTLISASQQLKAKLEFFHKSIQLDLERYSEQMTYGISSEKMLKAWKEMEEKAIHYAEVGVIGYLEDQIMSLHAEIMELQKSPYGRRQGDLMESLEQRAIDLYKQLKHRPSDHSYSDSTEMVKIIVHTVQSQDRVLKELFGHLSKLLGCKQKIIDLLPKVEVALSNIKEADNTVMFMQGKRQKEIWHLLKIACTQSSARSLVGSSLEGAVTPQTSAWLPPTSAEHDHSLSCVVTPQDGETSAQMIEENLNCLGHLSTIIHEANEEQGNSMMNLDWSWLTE

[4] = target: Serine/threonine-protein kinase tousled-like 1 (Homo sapiens) (UniProt Q9UKI8); settings: Compound concentration 1.0 uM
Sequence of Serine/threonine-protein kinase tousled-like 1 (Homo sapiens) (Q9UKI8 whole entry): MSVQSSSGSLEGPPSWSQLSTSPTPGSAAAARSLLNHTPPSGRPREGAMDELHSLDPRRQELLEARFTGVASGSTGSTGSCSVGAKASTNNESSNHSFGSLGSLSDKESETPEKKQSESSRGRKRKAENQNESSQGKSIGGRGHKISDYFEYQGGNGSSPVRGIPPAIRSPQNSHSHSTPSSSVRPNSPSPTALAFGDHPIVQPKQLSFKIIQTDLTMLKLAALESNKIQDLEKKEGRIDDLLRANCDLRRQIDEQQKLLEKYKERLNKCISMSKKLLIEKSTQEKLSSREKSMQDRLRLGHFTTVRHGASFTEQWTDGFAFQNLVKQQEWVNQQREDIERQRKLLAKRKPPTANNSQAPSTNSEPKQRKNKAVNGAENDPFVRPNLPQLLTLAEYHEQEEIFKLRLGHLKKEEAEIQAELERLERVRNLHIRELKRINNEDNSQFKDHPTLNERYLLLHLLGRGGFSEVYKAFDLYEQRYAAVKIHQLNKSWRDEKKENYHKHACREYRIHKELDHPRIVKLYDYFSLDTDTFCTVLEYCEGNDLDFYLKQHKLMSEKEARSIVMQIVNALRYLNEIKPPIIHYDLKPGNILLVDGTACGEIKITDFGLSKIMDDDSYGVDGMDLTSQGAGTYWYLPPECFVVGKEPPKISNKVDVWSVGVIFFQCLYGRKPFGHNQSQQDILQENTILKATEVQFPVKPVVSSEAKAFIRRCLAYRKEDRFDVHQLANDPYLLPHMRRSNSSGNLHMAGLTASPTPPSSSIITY

[5] = target: Sigma intracellular receptor 2 (Homo sapiens) (UniProt Q5BJF2); settings: Compound concentration 10.0 uM
[6] = target: Leukocyte tyrosine kinase receptor (Homo sapiens) (UniProt P29376); settings: Compound concentration 1.0 uM
[7] = target: Mitogen-activated protein kinase kinase kinase 19 (Homo sapiens) (UniProt Q56UN5); settings: Compound concentration 1.0 uM
[8] = target: Rho-associated protein kinase 2 (Homo sapiens) (UniProt O75116); assay: ROCKII DUNDEE kinase screen (BI); settings: Rattus norvegicus; Compound concentration 10.0 uM
[9] = target: D(1A) dopamine receptor (Homo sapiens) (UniProt P21728); settings: Compound concentration 10.0 uM
[10] = target: Homeodomain-interacting protein kinase 4 (Homo sapiens) (UniProt Q8NE63); assay: HIPK4 Invitrogen Lab (UK) kinase screen (BI); settings: Compound concentration 1.0 uM
[11] = target: Casein kinase I isoform gamma-3 (Homo sapiens) (UniProt Q9Y6M4); settings: Compound concentration 1.0 uM
Sequence of Casein kinase I isoform gamma-3 (Homo sapiens) (Q9Y6M4 whole entry, looked up, canonical isoform): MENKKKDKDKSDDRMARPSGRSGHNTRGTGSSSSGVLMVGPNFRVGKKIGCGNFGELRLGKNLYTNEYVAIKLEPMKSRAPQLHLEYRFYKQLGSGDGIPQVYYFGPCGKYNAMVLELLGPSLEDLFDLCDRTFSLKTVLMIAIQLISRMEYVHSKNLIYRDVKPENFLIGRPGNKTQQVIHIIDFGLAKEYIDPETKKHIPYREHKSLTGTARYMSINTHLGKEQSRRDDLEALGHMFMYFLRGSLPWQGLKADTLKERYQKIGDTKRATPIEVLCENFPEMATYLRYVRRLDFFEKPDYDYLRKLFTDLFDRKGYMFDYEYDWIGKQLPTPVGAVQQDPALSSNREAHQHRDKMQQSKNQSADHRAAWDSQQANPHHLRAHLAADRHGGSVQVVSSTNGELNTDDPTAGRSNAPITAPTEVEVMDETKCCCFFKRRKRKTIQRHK

[12] = target: D(1B) dopamine receptor (Homo sapiens) (UniProt P21918); settings: Compound concentration 10.0 uM
[13] = target: Mitogen-activated protein kinase kinase kinase kinase 3 (Homo sapiens) (UniProt Q8IVH8); settings: Compound concentration 1.0 uM
[14] = target: Myosin light chain kinase family member 4 (Homo sapiens) (UniProt Q86YV6); assay: MYLK4 Invitrogen Lab (UK) kinase screen (BI); settings: Compound concentration 1.0 uM
[15] = target: Muscle, skeletal receptor tyrosine-protein kinase (Homo sapiens) (UniProt O15146); assay: MUSK Invitrogen Lab (UK) kinase screen (BI); settings: Compound concentration 1.0 uM
[16] = target: NUAK family SNF1-like kinase 1 (Homo sapiens) (UniProt O60285); assay: NUAK1 Invitrogen Lab (UK) kinase screen (BI); settings: Compound concentration 1.0 uM
[17] = target: G protein-coupled receptor kinase 5 (Homo sapiens) (UniProt P34947); settings: Compound concentration 1.0 uM
[18] = target: Mitogen-activated protein kinase 14 (Homo sapiens) (UniProt Q16539); assay: SAPK2AP38 DUNDEE kinase screen (BI); settings: Compound concentration 10.0 uM
Sequence of Mitogen-activated protein kinase 14 (Homo sapiens) (Q16539 whole entry): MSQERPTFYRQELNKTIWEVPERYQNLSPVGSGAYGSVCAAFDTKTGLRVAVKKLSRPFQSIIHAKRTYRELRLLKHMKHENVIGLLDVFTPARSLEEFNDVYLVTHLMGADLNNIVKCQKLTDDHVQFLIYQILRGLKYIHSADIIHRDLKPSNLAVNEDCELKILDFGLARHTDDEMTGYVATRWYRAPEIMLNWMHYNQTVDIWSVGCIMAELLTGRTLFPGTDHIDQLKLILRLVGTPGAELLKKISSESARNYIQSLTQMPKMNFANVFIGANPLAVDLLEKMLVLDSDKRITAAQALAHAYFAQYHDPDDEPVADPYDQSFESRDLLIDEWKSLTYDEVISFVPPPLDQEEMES

[19] = target: Serine/threonine-protein kinase MARK2 (Homo sapiens) (UniProt Q7KZI7)
Sequence of Serine/threonine-protein kinase MARK2 (Homo sapiens) (Q7KZI7 whole entry): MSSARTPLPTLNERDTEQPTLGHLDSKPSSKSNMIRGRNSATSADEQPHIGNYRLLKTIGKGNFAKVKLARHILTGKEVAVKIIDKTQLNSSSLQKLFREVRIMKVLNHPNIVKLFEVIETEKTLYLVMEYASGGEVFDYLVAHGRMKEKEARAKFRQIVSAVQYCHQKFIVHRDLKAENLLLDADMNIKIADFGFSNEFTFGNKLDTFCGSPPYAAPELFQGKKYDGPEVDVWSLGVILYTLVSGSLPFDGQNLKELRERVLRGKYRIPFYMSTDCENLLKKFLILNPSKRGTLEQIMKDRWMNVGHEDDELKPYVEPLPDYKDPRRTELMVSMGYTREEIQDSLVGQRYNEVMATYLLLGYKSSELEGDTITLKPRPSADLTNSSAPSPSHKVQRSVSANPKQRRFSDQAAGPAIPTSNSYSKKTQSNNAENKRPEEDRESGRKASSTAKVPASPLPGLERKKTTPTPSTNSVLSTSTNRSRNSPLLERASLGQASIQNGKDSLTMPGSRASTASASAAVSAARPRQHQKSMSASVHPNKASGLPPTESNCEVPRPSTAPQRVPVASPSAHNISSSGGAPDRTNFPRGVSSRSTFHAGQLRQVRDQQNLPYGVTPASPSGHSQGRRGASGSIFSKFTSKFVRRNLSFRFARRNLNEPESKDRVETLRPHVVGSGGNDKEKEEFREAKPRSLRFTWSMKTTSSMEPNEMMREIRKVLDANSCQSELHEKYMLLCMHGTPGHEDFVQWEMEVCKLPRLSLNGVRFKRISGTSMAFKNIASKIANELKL

[20] = target: Macrophage colony-stimulating factor 1 receptor (Homo sapiens) (UniProt P07333)
Sequence of Macrophage colony-stimulating factor 1 receptor (Homo sapiens) (P07333 whole entry): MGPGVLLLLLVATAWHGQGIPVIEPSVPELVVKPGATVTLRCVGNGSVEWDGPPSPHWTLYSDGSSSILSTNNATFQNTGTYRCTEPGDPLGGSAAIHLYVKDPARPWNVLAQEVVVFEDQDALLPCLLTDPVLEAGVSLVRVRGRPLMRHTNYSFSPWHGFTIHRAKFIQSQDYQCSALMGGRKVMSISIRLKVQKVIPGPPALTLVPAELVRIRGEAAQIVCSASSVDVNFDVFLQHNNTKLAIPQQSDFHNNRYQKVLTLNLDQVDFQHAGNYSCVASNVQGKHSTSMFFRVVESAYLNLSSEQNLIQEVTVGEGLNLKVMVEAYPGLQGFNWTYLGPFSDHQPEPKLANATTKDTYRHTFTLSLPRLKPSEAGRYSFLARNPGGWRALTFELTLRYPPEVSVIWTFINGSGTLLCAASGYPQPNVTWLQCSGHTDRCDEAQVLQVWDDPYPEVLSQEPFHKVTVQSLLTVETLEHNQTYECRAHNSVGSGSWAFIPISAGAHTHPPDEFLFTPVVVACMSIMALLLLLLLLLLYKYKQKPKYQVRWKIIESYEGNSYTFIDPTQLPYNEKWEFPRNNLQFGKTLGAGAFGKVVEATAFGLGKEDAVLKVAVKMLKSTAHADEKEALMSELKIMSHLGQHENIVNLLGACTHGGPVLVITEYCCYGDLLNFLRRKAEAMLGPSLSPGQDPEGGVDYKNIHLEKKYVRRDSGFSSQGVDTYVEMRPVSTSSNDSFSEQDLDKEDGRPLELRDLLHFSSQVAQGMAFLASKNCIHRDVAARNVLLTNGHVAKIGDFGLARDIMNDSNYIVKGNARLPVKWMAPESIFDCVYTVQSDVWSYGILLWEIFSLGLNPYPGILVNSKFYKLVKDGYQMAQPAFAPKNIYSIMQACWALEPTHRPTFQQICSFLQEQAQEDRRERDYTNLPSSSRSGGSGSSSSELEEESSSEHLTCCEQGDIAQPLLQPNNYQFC

[21] = target: Tyrosine-protein kinase Srms (Homo sapiens) (UniProt Q9H3Y6); settings: Compound concentration 1.0 uM
[22] = target: T1, Serine/threonine-protein kinase Chk1 (Homo sapiens) (UniProt O14757); assay: CHK1 DUNDEE kinase screen (BI); settings: Compound concentration 10.0 uM
T1 sequence (whole entry): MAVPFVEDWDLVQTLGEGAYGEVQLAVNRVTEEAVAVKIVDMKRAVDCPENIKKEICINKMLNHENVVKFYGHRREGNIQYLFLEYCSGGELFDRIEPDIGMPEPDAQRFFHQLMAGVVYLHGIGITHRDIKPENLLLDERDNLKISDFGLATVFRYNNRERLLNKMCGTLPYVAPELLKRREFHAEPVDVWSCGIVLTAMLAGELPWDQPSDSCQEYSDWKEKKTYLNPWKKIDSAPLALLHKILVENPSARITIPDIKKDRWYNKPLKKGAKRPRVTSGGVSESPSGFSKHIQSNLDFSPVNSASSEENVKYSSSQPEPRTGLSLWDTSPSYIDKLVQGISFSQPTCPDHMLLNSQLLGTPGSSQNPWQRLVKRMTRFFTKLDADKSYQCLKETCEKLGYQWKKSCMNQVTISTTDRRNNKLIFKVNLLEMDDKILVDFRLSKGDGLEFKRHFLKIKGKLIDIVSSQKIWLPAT

[23] = target: Casein kinase I isoform alpha-like (Homo sapiens) (UniProt Q8N752); assay: CSNK1A1L Invitrogen Lab (UK) kinase screen (BI); settings: Compound concentration 1.0 uM
[24] = target: TGF-beta receptor type-2 (Homo sapiens) (UniProt P37173); settings: Compound concentration 1.0 uM
[25] = target: SRSF protein kinase 1 (Homo sapiens) (UniProt Q96SB4); settings: Compound concentration 1.0 uM
[26] = target: Phosphatidylinositol 4-kinase type 2-beta (Homo sapiens) (UniProt Q8TCG2); assay: PI4K2B Invitrogen Lab (UK) kinase screen (BI); settings: Compound concentration 1.0 uM
[27] = target: Mitogen-activated protein kinase 14 (Homo sapiens) (UniProt Q16539)
[28] = target: Serine/threonine-protein kinase D2 (Homo sapiens) (UniProt Q9BZL6); settings: Compound concentration 1.0 uM
[29] = target: G protein-coupled receptor kinase 3 (Homo sapiens) (UniProt P35626); settings: Compound concentration 1.0 uM
[30] = target: Non-receptor tyrosine-protein kinase TYK2 (Homo sapiens) (UniProt P29597); settings: Compound concentration 1.0 uM
[31] = target: Calcium/calmodulin-dependent protein kinase type IV (Homo sapiens) (UniProt Q16566); assay: CAMK4 Invitrogen Lab (UK) kinase screen (BI); settings: Compound concentration 1.0 uM
Sequence of Calcium/calmodulin-dependent protein kinase type IV (Homo sapiens) (Q16566 whole entry): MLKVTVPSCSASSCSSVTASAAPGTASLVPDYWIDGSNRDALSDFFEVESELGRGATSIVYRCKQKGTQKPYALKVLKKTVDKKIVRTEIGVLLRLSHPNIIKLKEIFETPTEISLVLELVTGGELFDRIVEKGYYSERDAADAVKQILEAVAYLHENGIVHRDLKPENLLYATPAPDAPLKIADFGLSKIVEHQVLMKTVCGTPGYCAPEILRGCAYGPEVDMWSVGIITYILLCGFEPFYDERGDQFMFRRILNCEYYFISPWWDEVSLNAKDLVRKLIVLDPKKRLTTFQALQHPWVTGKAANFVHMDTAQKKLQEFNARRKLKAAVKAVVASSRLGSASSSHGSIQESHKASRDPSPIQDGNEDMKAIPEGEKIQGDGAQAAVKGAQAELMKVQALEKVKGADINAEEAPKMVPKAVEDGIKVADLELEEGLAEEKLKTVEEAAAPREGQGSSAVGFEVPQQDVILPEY

[32] = target: Cyclin-G-associated kinase (Homo sapiens, UniProt O14976); assay: Dose response measurement (GAK)
[33] = target: Cyclin-dependent kinase 5/CDK5 activator 1 (Homo sapiens) (UniProt Q00535+Q15078); settings: Compound concentration 1.0 uM
[34] = target: Ephrin type-A receptor 7 (Homo sapiens) (UniProt Q15375); settings: Compound concentration 1.0 uM
[35] = target: RAC-alpha serine/threonine-protein kinase (Homo sapiens) (UniProt P31749)
Sequence of RAC-alpha serine/threonine-protein kinase (Homo sapiens) (P31749 whole entry): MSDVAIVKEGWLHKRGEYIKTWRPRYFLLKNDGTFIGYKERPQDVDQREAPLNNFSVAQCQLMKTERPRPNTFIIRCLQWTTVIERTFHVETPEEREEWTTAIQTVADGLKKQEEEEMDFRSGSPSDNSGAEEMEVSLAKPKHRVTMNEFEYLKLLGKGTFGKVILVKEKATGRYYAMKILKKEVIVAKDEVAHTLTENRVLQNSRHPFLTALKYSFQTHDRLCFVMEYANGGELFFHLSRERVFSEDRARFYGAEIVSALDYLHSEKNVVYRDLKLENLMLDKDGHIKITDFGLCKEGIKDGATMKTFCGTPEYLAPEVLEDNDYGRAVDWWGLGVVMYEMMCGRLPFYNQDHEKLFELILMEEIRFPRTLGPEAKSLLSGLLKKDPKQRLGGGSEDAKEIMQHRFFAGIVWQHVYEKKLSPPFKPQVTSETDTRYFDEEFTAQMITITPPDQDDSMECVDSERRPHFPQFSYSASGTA

[36] = target: Insulin receptor-related protein (Homo sapiens) (UniProt P14616); settings: Compound concentration 1.0 uM
[37] = target: Serine/threonine-protein kinase pim-2 (Homo sapiens) (UniProt Q9P1W9); settings: Compound concentration 10.0 uM

Question: Which results are given for CCC(F)(F)c1cc(N2CCC(S(C)(=O)=O)CC2)nc2sc(C(N)=O)c(N)c12 [BI-605906]?
Answer: residual activity [1]: 92%; residual activity [2]: 94%; residual activity ([3]; Compound concentration 1.0 uM): 67%; residual activity ([3]; Compound concentration 10.0 uM): 27%; residual activity [4]: 91%; inhibition [5]: 34.5%; residual activity [6]: 99%; residual activity [7]: 98%; residual activity [8]: 40.1%; inhibition [9]: 25.7%; residual activity [10]: 77%; residual activity [11]: 99%; inhibition [12]: 2.13%; residual activity [13]: 93%; residual activity [14]: 83%; residual activity [15]: 84%; residual activity [16]: 84%; residual activity [17]: 96%; residual activity [18]: 85.3%; residual activity ([19]; Compound concentration 1.0 uM): 90%; residual activity ([19]; Compound concentration 10.0 uM): 87%; residual activity ([20]; Compound concentration 1.0 uM): 58%; residual activity ([20]; Compound concentration 10.0 uM): 14%; residual activity [21]: 99%; residual activity [22]: 90.2%; residual activity [23]: 84%; residual activity [24]: 87%; residual activity [25]: 99%; residual activity [26]: 102%; residual activity ([27]; Compound concentration 1.0 uM): 92%; residual activity ([27]; Compound concentration 10.0 uM): 60%; residual activity [28]: 95%; residual activity [29]: 96%; residual activity [30]: 93%; residual activity [31]: 103%; IC50 [32]: 0.188 µM; residual activity [33]: 99%; residual activity [34]: 87%; residual activity ([35]; Compound concentration 1.0 uM): 99%; residual activity ([35]; Compound concentration 10.0 uM): 96%; residual activity [36]: 92%; residual activity [37]: 101%
